The values below come from patent publication US10201546B2, “Quinolinyl modulators of RORγt” (Janssen Pharmaceutica NV, priority 2013, dated 2019).

The target in the first experiment is human RORγt LBD fused to the DNA binding domain of the GAL4 protein (Homo sapiens (Human), UniProt P51449). Nature of the experiment: RORγt (LBD) reporter assay in HEK293T cells. Details: RORγt (LBD) Reporter Assay, % inhibition: dose or concentration left out as unconfirmed. It counts as cell-based.
Chain of human RORγt LBD fused to the DNA binding domain of the GAL4 protein (P51449 258-518): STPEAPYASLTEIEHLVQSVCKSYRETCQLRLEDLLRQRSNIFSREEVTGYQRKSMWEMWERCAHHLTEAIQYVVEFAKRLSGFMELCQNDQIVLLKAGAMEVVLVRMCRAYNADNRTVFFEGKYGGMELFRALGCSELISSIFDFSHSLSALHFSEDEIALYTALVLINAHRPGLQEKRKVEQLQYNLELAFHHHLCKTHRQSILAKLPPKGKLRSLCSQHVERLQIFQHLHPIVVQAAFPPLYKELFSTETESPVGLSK
Settings: not given
As to `COc1nc2ccc(C(O)(c3ccc(C)nc3C)c3cnnn3C)cc2c(Cl)c1CC(C)C` (single isomer, unassigned) [Example 133b, (4-Chloro-3-isobutyl-2-methoxyquinolin-6-yl)(2,6-dimethylpyridin-3-yl)(1-methyl-1H-1,2,3-triazol-5-yl)methanol], the “RORγt (LBD) Reporter Assay, % inhibition” value came to 90%.

For `COc1nc2ccc(C(O)(c3ccc(C)nc3C)c3cnnn3C)cc2c(Cl)c1C1CCCC1` (single isomer, unassigned) [Example 136c, (4-Chloro-3-cyclopentyl-2-methoxyquinolin-6-yl)(2,6-dimethylpyridin-3-yl)(1-methyl-1H-1,2,3-triazol-5-yl)methanol], the “RORγt (LBD) Reporter Assay, % inhibition” value stood at 98%.

Turning to `COc1nc2ccc(C(O)(c3ccc(C)nc3C)c3cnnn3C)cc2c(Cl)c1CC(C)C` (centres unmarked) [Example 133a, (4-Chloro-3-isobutyl-2-methoxyquinolin-6-yl)(2,6-dimethylpyridin-3-yl)(1-methyl-1H-1,2,3-triazol-5-yl)methanol], the “RORγt (LBD) Reporter Assay, % inhibition” value is given as 98%.

Turning to `COc1nc2ccc(C(O)(c3ccc(C)nc3C)c3cnnn3C)cc2c(Cl)c1CC(C)C` (single isomer, unassigned) [Example 133c, (4-Chloro-3-isobutyl-2-methoxyquinolin-6-yl)(2,6-dimethylpyridin-3-yl)(1-methyl-1H-1,2,3-triazol-5-yl)methanol], the “RORγt (LBD) Reporter Assay, % inhibition” value was found to be 98%.

The experiment is the same for the next values; noted with them: @ 6 μM.
Turning to `COc1nc2ccc(C(O)(c3ccc(C)nc3C)c3cnnn3C)cc2c(Cl)c1OC1CCOCC1` (single isomer, unassigned) [Example 69b, [4-Chloro-2-methoxy-3-(tetrahydro-2H-pyran-4-yloxy)quinolin-6-yl](2,6-dimethylpyridin-3-yl)(1-methyl-1H-1,2,3-triazol-5-yl)methanol], the “RORγt (LBD) Reporter Assay, % inhibition @ 6 μM” value (“RORγt … % inhibition @ 6 μM” for short) is recorded as 37%.

For `COc1nc2ccc(C(O)(c3ccc(C)nc3C)c3cnnn3C)cc2c(Cl)c1CC1CC1` (single isomer, unassigned) [Example 14c, (4-Chloro-3-(cyclopropylmethyl)-2-methoxyquinolin-6-yl)(2,6-dimethylpyridin-3-yl)(1-methyl-1H-1,2,3-triazol-5-yl)methanol], the “RORγt … % inhibition @ 6 μM” value is given as 98%.

On to `COc1nc2ccc(C(O)(c3ccc(C)nc3C)c3cnnn3C)cc2c(Cl)c1C` (single isomer, unassigned) [Example 12c, (4-Chloro-2-methoxy-3-methylquinolin-6-yl)(2,6-dimethylpyridin-3-yl)(1-methyl-1H-1,2,3-triazol-5-yl)methanol], for which the “RORγt … % inhibition @ 6 μM” value was found to be 93%.

`COc1nc2ccc(C(O)(c3ccc(C)nc3C)c3cnnn3C)cc2c(Cl)c1C` (single isomer, unassigned) [Example 12b, (4-Chloro-2-methoxy-3-methylquinolin-6-yl)(2,6-dimethylpyridin-3-yl)(1-methyl-1H-1,2,3-triazol-5-yl)methanol]: the “RORγt … % inhibition @ 6 μM” value was 23%.

Regarding `COc1nc2ccc(C(O)(c3ccc(C(F)(F)F)nc3)c3cncn3C)cc2c(Cl)c1CN1CCC(C(F)(F)F)CC1` (single isomer, unassigned) [Example 112c, (4-Chloro-2-methoxy-3-((4-(trifluoromethyl)piperidin-1-yl)methyl)quinolin-6-yl)(1-methyl-1H-imidazol-5-yl)(6-(trifluoromethyl)pyridin-3-yl)methanol], the “RORγt … % inhibition @ 6 μM” value came to 96%.

For the molecule `COc1nc2ccc(C(O)(c3ccc(C)nc3C)c3cnnn3C)cc2c(Cl)c1OC1CCOCC1` (single isomer, unassigned) [Example 69c, [4-Chloro-2-methoxy-3-(tetrahydro-2H-pyran-4-yloxy)quinolin-6-yl](2,6-dimethylpyridin-3-yl)(1-methyl-1H-1,2,3-triazol-5-yl)methanol], the “RORγt … % inhibition @ 6 μM” value is recorded as 61%.

Turning to `COc1nc2ccc(C(O)(c3ccc(C)nc3C)c3cnnn3C)cc2c(Cl)c1CN1CCC(F)(F)CC1` (single isomer, unassigned) [Example 107c, (4-Chloro-3-((4,4-difluoropiperidin-1-yl)methyl)-2-methoxyquinolin-6-yl)(2,6-dimethylpyridin-3-yl)(1-methyl-1H-1,2,3-triazol-5-yl)methanol], the “RORγt … % inhibition @ 6 μM” value was found to be 54%.

Consider `COCCOc1c(OC)nc2ccc(C(O)(c3ccc(C(F)(F)F)nc3)c3cncn3C)cc2c1Cl` (single isomer, unassigned) [Example 79b, [4-Chloro-2-methoxy-3-(2-methoxyethoxy)quinolin-6-yl](1-methyl-1H-imidazol-5-yl)[6-(trifluoromethyl)pyridin-3-yl]methanol], for which the “RORγt … % inhibition @ 6 μM” value worked out at 30%.

For `COCCOc1c(OC)nc2ccc(C(O)(c3ccc(C(F)(F)F)nc3)c3cncn3C)cc2c1Cl` (single isomer, unassigned) [Example 79c, [4-Chloro-2-methoxy-3-(2-methoxyethoxy)quinolin-6-yl](1-methyl-1H-imidazol-5-yl)[6-(trifluoromethyl)pyridin-3-yl]methanol], the “RORγt … % inhibition @ 6 μM” value is given as −2.5%.

Regarding `COc1nc2ccc(C(O)(c3ccc(C)nc3C)c3cnnn3C)cc2c(Cl)c1OCC1CC1(F)F` (single isomer, unassigned) [Example 72c, {4-Chloro-3-[(2,2-difluorocyclopropyl)methoxy]-2-methoxyquinolin-6-yl}(2,6-dimethylpyridin-3-yl)(1-methyl-1H-1,2,3-triazol-5-yl)methanol], the “RORγt … % inhibition @ 6 μM” value turned out to be 86%.

On to `COc1nc2ccc(C(O)(c3ccc(C)nc3C)c3cnnn3C)cc2c(Cl)c1OCc1nccs1` (single isomer, unassigned) [Example 73b, [4-Chloro-2-methoxy-3-(1,3-thiazol-2-ylmethoxy)quinolin-6-yl](2,6-dimethylpyridin-3-yl)(1-methyl-1H-1,2,3-triazol-5-yl)methanol], for which the “RORγt … % inhibition @ 6 μM” value is listed as −15%.

`COc1nc2ccc(C(O)(c3cncn3C)C3CCN(C(C)=O)CC3)cc2c(Cl)c1CC1CCOCC1` (single isomer, unassigned) [Example 5c, 1-(4-((4-Chloro-2-methoxy-3-((tetrahydro-2H-pyran-4-yl)methyl)quinolin-6-yl)(hydroxy)(1-methyl-1H-imidazol-5-yl)methyl)piperidin-1-yl)ethanone]: the “RORγt … % inhibition @ 6 μM” value amounted to 36%.

As to `COc1nc2ccc(C(O)(c3ccc(C)nc3C)c3cnnn3C)cc2c(Cl)c1OCC1CC1` (single isomer, unassigned) [Example 68c, [4-Chloro-3-(cyclopropylmethoxy)-2-methoxyquinolin-6-yl](2,6-dimethylpyridin-3-yl)(1-methyl-1H-1,2,3-triazol-5-yl)methanol], the “RORγt … % inhibition @ 6 μM” value amounted to 87%.

Still in this experiment, the particulars now being: HEK-293T, read-out: RORγt (LBD) Reporter Assay, % inhibition @ 6 μM, @ 6 μM.
`COc1nc2ccc(C(O)(c3ccc(C)nc3C)c3cnnn3C)cc2c(Cl)c1CN1CC(C(F)(F)F)C1` (single isomer, unassigned) [Example 114b, (4-Chloro-2-methoxy-3-((3-(trifluoromethyl)azetidin-1-yl)methyl)quinolin-6-yl)(2,6-dimethylpyridin-3-yl)(1-methyl-1H-1,2,3-triazol-5-yl)methanol]: the inhibition at 6 µM was 60%.

On to `COc1nc2ccc(C(O)(c3ccc(C)nc3C)c3cnnn3C)cc2c(Cl)c1CC1CCC(F)(F)CC1` (single isomer, unassigned) [Example 1b, (4-Chloro-3-((4,4-difluorocyclohexyl)methyl)-2-methoxyquinolin-6-yl)(2,6-dimethylpyridin-3-yl)(1-methyl-1H-1,2,3-triazol-5-yl)methanol], for which the inhibition at 6 µM was found to be 78%.

As to `COc1nc2ccc(C(O)(c3ccc(C)nc3C)c3cnnn3C)cc2c(Cl)c1OCC1CC1` (centres unmarked) [Example 68a, [4-Chloro-3-(cyclopropylmethoxy)-2-methoxyquinolin-6-yl](2,6-dimethylpyridin-3-yl)(1-methyl-1H-1,2,3-triazol-5-yl)methanol], the inhibition at 6 µM was determined as 83%.

Consider `COc1nc2ccc(C(O)(c3cncn3C)C3CCN(C(C)=O)CC3)cc2c(Cl)c1CC1CCOCC1` (centres unmarked) [Example 5a, 1-(4-((4-Chloro-2-methoxy-3-((tetrahydro-2H-pyran-4-yl)methyl)quinolin-6-yl)(hydroxy)(1-methyl-1H-imidazol-5-yl)methyl)piperidin-1-yl)ethanone], for which the inhibition at 6 µM is 45%.

As for `COc1nc2ccc(C(O)(c3ccc(C)nc3C)c3cnnn3C)cc2c(Cl)c1OCC1CC1(F)F` (centres unmarked) [Example 72a, {4-Chloro-3-[(2,2-difluorocyclopropyl)methoxy]-2-methoxyquinolin-6-yl}(2,6-dimethylpyridin-3-yl)(1-methyl-1H-1,2,3-triazol-5-yl)methanol], the inhibition at 6 µM was determined as 85%.

Take `COc1nc2ccc(C(O)(c3cnnn3C)c3cnc(C)n3C)cc2c(Cl)c1CN1CCC(C(F)(F)F)CC1` (single isomer, unassigned) [Example 106b, (4-Chloro-2-methoxy-3-((4-(trifluoromethyl)piperidin-1-yl)methyl)quinolin-6-yl)(1,2-dimethyl-1H-imidazol-5-yl)(1-methyl-1H-1,2,3-triazol-5-yl)methanol]: the inhibition at 6 µM amounted to 103%.

Turning to `COc1nc2ccc(C(O)(c3ccc(C)nc3C)c3cnnn3C)cc2c(Cl)c1CN1CCC(F)(F)CC1` (centres unmarked) [Example 107a, (4-Chloro-3-((4,4-difluoropiperidin-1-yl)methyl)-2-methoxyquinolin-6-yl)(2,6-dimethylpyridin-3-yl)(1-methyl-1H-1,2,3-triazol-5-yl)methanol], the inhibition at 6 µM stood at 54%.

In the case of `COc1nc2ccc(C(O)(c3ccc(C)nc3C)c3cnnn3C)cc2c(Cl)c1OCc1ncccn1` (single isomer, unassigned) [Example 66b, [4-Chloro-2-methoxy-3-(pyrimidin-2-ylmethoxy)quinolin-6-yl](2,6-dimethylpyridin-3-yl)(1-methyl-1H-1,2,3-triazol-5-yl)methanol], the inhibition at 6 µM is -129%.

For `COc1nc2ccc(C(O)(c3ccc(C)nc3C)c3cnnn3C)cc2c(Cl)c1OCc1ncccn1` (centres unmarked) [Example 66a, [4-Chloro-2-methoxy-3-(pyrimidin-2-ylmethoxy)quinolin-6-yl](2,6-dimethylpyridin-3-yl)(1-methyl-1H-1,2,3-triazol-5-yl)methanol], the inhibition at 6 µM was -112%.
